Measured values taken from ChEMBL document CHEMBL1909046, “DrugMatrix in vitro pharmacology data”.

What was measured:
D(3) dopamine receptor = D(3) dopamine receptor (Homo sapiens, UniProt P35462); test: DRUGMATRIX: Dopamine D3 radioligand binding (ligand: [3H] Spiperone); type: cell membranes, CHO, Membrane; conditions: cho
[1] = DRUGMATRIX: Glutamate, Kainate radioligand binding (ligand: [3H] Kainic acid); type: cell membranes, Rattus norvegicus, Wistar, Brain, Membrane; conditions: Not Active = under 50% inhibition at 10 µM
Mu-type opioid receptor = Mu-type opioid receptor (Homo sapiens, UniProt P35372); test: DRUGMATRIX: Opiate mu (OP3, MOP) radioligand binding (ligand: [3H] Diprenorphine); type: cell membranes, CHO-K1, Membrane; conditions: cho-k1; Not Active = under 50% inhibition at 10 µM
[2] = DRUGMATRIX: Phosphodiesterase PDE3 enzyme inhibition (substrate: [3H]cAMP + cAMP); type: tissue-based, Homo sapiens; conditions: platelet; Not Active = under 50% inhibition at 10 µM
Interstitial collagenase = biological target: T1, Interstitial collagenase (Homo sapiens, UniProt P03956); test: biochemical; type: tissue-based, Rheumatoid synovial fibroblasts;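 also: MMP-1 enzyme inhibition assay using a peptide substrate; in other assays of this panel Not Active means under 50% inhibition at 10 µM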
T1 sequence (P03956 whole entry): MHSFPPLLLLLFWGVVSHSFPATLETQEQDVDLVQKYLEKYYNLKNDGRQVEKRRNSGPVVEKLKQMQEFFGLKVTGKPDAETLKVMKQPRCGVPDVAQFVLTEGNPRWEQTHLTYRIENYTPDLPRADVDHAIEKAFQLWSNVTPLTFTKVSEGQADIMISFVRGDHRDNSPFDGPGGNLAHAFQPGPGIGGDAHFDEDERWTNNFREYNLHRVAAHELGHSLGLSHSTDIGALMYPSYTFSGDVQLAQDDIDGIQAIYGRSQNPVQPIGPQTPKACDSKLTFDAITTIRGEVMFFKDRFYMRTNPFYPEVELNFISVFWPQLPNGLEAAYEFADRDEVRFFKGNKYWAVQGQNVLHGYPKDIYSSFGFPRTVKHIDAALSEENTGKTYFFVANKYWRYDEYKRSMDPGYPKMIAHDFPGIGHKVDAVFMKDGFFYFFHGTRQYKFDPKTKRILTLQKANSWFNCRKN

[3] = biological target: T2, Receptor-type tyrosine-protein phosphatase C (Homo sapiens, UniProt P08575); set-up: species or system Escherichia coli;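 also: inhibition of CD45 enzyme activity measured using DiFMUP as substrate; in other assays of this panel Not Active means under 50% inhibition at 10 µM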
T2 sequence (P08575 whole entry): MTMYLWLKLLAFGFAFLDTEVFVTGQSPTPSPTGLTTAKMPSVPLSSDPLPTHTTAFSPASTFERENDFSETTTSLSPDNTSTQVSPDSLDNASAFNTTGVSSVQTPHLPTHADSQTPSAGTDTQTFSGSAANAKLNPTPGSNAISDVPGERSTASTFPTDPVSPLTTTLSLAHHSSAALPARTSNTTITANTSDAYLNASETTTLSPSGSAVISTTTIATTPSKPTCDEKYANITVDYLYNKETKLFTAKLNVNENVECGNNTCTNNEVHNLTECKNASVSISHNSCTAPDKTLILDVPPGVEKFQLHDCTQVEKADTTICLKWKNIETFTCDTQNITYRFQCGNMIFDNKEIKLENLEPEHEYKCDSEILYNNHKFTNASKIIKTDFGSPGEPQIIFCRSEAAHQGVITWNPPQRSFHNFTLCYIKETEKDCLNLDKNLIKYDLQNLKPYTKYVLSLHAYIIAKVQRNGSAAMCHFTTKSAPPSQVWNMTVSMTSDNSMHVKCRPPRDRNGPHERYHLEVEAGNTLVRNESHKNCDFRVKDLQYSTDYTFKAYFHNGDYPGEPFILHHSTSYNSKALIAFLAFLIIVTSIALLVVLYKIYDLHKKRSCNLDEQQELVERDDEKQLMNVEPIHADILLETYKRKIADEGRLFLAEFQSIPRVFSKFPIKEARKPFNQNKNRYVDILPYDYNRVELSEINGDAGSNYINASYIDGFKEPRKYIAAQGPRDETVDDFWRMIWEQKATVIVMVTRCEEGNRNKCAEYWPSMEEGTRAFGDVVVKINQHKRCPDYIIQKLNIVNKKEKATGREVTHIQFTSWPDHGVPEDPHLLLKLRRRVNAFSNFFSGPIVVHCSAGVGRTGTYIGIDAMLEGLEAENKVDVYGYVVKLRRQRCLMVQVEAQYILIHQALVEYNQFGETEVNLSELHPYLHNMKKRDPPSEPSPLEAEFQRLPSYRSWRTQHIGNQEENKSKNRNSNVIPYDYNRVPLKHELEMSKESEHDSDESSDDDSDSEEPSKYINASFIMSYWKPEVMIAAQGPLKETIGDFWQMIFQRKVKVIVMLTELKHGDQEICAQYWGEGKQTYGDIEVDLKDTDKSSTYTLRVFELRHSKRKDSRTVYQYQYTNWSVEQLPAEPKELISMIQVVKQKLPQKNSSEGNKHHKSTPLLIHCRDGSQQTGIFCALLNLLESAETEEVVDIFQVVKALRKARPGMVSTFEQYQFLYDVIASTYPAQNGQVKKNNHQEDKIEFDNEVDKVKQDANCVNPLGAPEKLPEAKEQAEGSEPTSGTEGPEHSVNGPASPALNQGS

Cytochrome P450 2C9 = Cytochrome P450 2C9 (Homo sapiens, UniProt P11712); conditions: bti-tn-5b1-4; also: in other assays of this panel Not Active means under 50% inhibition at 10 µM
Cytochrome P450 2C9, sequence (P11712 whole entry): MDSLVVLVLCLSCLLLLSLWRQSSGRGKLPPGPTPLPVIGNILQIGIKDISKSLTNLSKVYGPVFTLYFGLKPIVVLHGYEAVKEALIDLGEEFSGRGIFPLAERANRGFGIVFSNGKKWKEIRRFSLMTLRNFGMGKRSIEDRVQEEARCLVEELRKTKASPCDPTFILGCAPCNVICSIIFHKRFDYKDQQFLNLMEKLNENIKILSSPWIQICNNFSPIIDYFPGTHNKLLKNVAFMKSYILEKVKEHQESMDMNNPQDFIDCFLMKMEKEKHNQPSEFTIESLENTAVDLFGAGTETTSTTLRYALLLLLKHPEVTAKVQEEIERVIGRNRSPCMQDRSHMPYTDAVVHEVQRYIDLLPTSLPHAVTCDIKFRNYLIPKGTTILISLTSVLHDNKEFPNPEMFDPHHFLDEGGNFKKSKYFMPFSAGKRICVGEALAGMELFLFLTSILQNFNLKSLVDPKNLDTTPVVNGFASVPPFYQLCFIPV

D(3) dopamine receptor, sequence (P35462 whole entry): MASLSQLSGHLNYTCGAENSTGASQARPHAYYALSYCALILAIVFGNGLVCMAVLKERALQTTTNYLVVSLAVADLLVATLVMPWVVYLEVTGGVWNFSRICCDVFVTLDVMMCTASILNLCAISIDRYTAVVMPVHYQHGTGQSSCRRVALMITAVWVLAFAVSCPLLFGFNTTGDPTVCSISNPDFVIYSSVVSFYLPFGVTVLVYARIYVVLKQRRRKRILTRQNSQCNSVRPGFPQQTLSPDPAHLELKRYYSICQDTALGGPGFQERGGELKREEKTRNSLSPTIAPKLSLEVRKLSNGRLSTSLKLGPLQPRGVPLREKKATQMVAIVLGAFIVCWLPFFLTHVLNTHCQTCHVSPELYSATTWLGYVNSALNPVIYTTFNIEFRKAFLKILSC
Mu-type opioid receptor, sequence (P35372 whole entry): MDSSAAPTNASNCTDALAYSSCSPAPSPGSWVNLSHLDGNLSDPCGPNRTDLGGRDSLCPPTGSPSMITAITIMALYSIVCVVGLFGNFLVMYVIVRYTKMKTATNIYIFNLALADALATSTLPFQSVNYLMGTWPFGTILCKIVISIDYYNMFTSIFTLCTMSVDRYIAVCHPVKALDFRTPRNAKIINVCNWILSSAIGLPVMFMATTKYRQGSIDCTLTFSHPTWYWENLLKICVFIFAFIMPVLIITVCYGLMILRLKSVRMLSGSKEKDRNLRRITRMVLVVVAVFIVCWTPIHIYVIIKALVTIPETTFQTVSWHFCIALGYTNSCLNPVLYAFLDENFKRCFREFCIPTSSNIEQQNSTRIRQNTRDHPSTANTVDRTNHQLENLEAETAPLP

Nc1ccn([C@@H]2O[C@H](CO)[C@@H](O)C2(F)F)c(=O)n1 [GEMCITABINE]
Not Active: IC50 (D(3) dopamine receptor) | IC50 [1] | Ki [1] | IC50 (Mu-type opioid receptor) | IC50 [2] | Ki [2] | IC50 (Interstitial collagenase) | IC50 [3] | IC50 (Cytochrome P450 2C9) | Ki (Cytochrome P450 2C9)

Nc1ccn([C@@H]2O[C@H](CO)[C@@H](O)[C@@H]2O)c(=O)n1 [CYTARABINE]
Not Active: IC50 (D(3) dopamine receptor) | IC50 [1] | Ki [1] | IC50 (Mu-type opioid receptor) | IC50 [2] | Ki [2] | IC50 (Interstitial collagenase) | IC50 [3] | IC50 (Cytochrome P450 2C9) | Ki (Cytochrome P450 2C9)

C=CCc1ccc(O)c(OC)c1 [EUGENOL]
Not Active: IC50 (D(3) dopamine receptor) | IC50 [1] | Ki [1] | IC50 (Mu-type opioid receptor) | IC50 [2] | Ki [2] | IC50 (Interstitial collagenase) | IC50 [3] | IC50 (Cytochrome P450 2C9) | Ki (Cytochrome P450 2C9)

CCn1cc(C(=O)O)c(=O)c2cnc(N3CCCC3)nc21 [PIROMIDIC ACID]
Not Active: IC50 (D(3) dopamine receptor) | IC50 [1] | Ki [1] | IC50 (Mu-type opioid receptor) | IC50 [2] | Ki [2] | IC50 (Interstitial collagenase) | IC50 [3] | IC50 (Cytochrome P450 2C9) | Ki (Cytochrome P450 2C9)

COC(=O)Nc1nc2ccc(C(=O)c3cccs3)cc2[nH]1 [NOCODAZOLE]
Not Active: IC50 (D(3) dopamine receptor) | IC50 [1] | Ki [1] | IC50 (Mu-type opioid receptor) | IC50 [2] | Ki [2] | IC50 (Interstitial collagenase) | IC50 [3] | IC50 (Cytochrome P450 2C9) | Ki (Cytochrome P450 2C9)

CC(=O)[C@H]1[C@H](C#N)C[C@H]2[C@@H]3CC=C4C[C@@H](O)CC[C@]4(C)[C@H]3CC[C@@]21C [PREGNENOLONE CARBONITRILE]
Not Active: IC50 (D(3) dopamine receptor) | IC50 [1] | Ki [1] | IC50 (Mu-type opioid receptor) | IC50 [2] | Ki [2] | IC50 (Interstitial collagenase) | IC50 [3] | IC50 (Cytochrome P450 2C9) | Ki (Cytochrome P450 2C9)

C[C@@H]1CC[C@@]2(OC1)O[C@H]1[C@@H](O)[C@H]3[C@@H]4CC[C@H]5C[C@@H](O[C@@H]6O[C@H](CO)[C@H](O[C@@H]7O[C@H](CO)C(O)[C@H](O[C@@H]8OC[C@@H](O)[C@H](O)[C@H]8O)[C@H]7O[C@@H]7O[C@H](CO)[C@H](O)[C@H](O[C@@H]8O[C@H](CO)[C@@H](O)[C@H](O)[C@H]8O)[C@H]7O)[C@H](O)[C@H]6O)[C@H](O)C[C@]5(C)[C@H]4CC[C@]3(C)[C@H]1[C@@H]2C (stereo not given in full) [DIGITONIN]
Not Active: IC50 (D(3) dopamine receptor) | IC50 [1] | Ki [1] | IC50 (Mu-type opioid receptor) | IC50 [2] | Ki [2] | IC50 (Interstitial collagenase) | IC50 [3] | IC50 (Cytochrome P450 2C9) | Ki (Cytochrome P450 2C9)
